Reference: patent publication US8841346B2 (Massachusetts Institute of Technology, priority 2009, dated 2014)
Converted amounts (≈) assume the structure as drawn. “Also recorded” adds a separate entry of the source. Where two headings read alike, the source gives them in different places.

Tests used:
[1] = tested on: C57/BL6 WT mice; assay: Contextual fear conditioning paradigm, memory formation in wild type mice; assay type: in vivo; conditions: for memory formation, tested 24 hours after training: 1 mg/kg for 10 days, WT mice, n=20 (FIG. 45B); for memory as measured by % freezing, contextual fear conditioning: HDAC inhibitor injected for 10 days, WT mice (FIG. 26)
Protocol: C57/BL6 WT mice were injected with vehicle or HDAC inhibitor for 10 days.
The total number of mice in each group is indicated in the bottom of each column of FIG. 45A. Mice were subsequently trained with contextual fear conditioning paradigm and tested 24 hours after training. […] After 10 day's dosing, mice were trained with contextual fear conditioning paradigm and tested 24 hours after training.

[2] = Solubility study of CI-994 HCl salt in saline; assay type: physicochemical
Protocol: 2. […] Shaken the tube manually. Observation: Solution becomes hazy. 4. Sonicated the above solution of step 3 for 5 minutes. Observation: Solution becomes white colored cloudy solution when 0.9% saline solution was added. […] 5. […] 6. Supernatant clear solution of step 5 was used for analysis.

[3] = tested on: HEK293 cells; assay: Histone acetylation marks in HEK293 cells, Western blot; assay type: cell-based; conditions: whole HEK293 cells, 10 uM, 6 hour
[4] = tested on: mice; assay: Extinction of traumatic long-term memories; assay type: in vivo
Description: 30 days after training, mice were exposed to two 3-min extinction sessions per day in the same context as they were trained. […] 30 days after fear conditioning to both the context (context A) and the cue (3×0.8 mA shock for 2 sec paired with a tone) mice were first exposed to the cue alone in a different context (context B) than the one in which training occurred (context A), and subsequently to two 3-min extinction sessions per day in the same context as they were trained (context A). After the end of this extinction session, mice were again exposed to context B, and their memory tested.

[5] = tested on: CK-p25 mice; assay: Local field potential recording in hippocampus CA1 of CK-p25 mice; assay type: in vivo; conditions: 1 mg/kg i.p. 10 days, recorded 10 days after treatment
[6] = tested on: WT C57/BL6 mice; assay: Single dose before one 21 minute fear extinction trial; assay type: in vivo
Protocol: The mice were exposed to the fear-associated context for 21 minutes without pairing with shock. Freezing behavior was measured in the first 3 minutes and last 3 minutes during the extinction training, 24 hrs after extinction and 30 days after extinction. (n=20 for each group).

[7] = oral dose level of less than 15 mg/m2 once a day, humans; cited from earlier work
[8] = Maximal solubility of CI-994 free base in solvents, HPLC; assay type: physicochemical
[9] = tested on: mice; assay: Fear extinction under the reconsolidation paradigm; assay type: in vivo; conditions: for spontaneous recovery of fear memory, freezing one month after initial training: reconsolidation paradigm; for fear extinction, freezing time of first trial in each day: reconsolidation training 4 days, n=20
Protocol: Mice were trained in contextual fear conditioning paradigm with two shocks. The mice subsequently received the reconsolidation training during the following 4 days. […] One hour after injection, mice were placed back to the same context for 3 minutes. The freezing time of the first trial in each day was measured and plotted.
Spontaneous recovery of the fear memory were tested one month after the initial fear memory training. […] (students t-Test).

[10] = tested on: HDAC2 overexpression mice
Protocol: Mice were trained using contextual fear conditioning paradigm on day 0.
For the memory reconsolidation paradigm, after the fear extinction training as described above, mice were housed in the home cage for one month. Mice were subsequently re-exposed to the conditioning box for 3 min, their freezing behavior measured.

[11] = tested on: mice; assay: Extinction of fear memory under specific context; assay type: in vivo; conditions: 30 mg/kg one hour after retrieval, 3 days, n=10
Protocol: Mice were placed in a novel training box for 3 minutes and received tone for 30 seconds, followed by electrical shocks. […] Twenty-four hours after the second fear conditioning training, mice were exposed to the training chamber (context only) to retrieve the context dependant memory. […] One hour after injection, mice were placed back in the chamber for 3 min for the extinction training. The reactivation-extinction trials were performed once in each day for 3 days and freezing level was measured 5 days after the last training. (n=10 for each group).

[12] = tested on: HDAC isoforms; assay: Enzymatic inhibitory activity against known HDAC isoforms; assay type: biochemical, human; conditions: for time dependent enzymatic inhibitory activity against HDAC isoforms: 1-3 h preincubation
Description: Comparison was also made to other known memory enhancers and their ability to inhibit the same HDAC enzymes.

[13] = tested on: Wild type C57/BL6 mice; assay: Fear extinction under normal extinction paradigm; assay type: in vivo; conditions: DCS 15 mg/kg or CI-994 30 mg/kg, 21 minute extinction trial
Description: Wild type C57/BL6 mice were trained with contextual fear conditioning paradigms.

[14] = tested on: mice; assay: Three-day fear memory extinction trials with reminder shock; assay type: in vivo; conditions: 25 mg/kg
Protocol: Two groups of mice were trained in contextual fear conditioning for two times before a three-day-extinction trials. In each extinction day, mice were exposed to the training box without any shock for 3 minutes and returned back to their home-cage. […] The freezing behavior of each mouse in the training cage were monitored. To test the fear memory recovery, a reminder shock was given one hour after the last extinction trial.

[15] = tested on: TCF/LEF luciferase reporter gene; assay: TCF/LEF luciferase reporter gene in human neural progenitor cells; assay type: cell-based; conditions: read-out: EC50 of TCF/LEF luciferase reporter activation
[16] = tested on: CK-p25 mice; assay: Morris watermaze in CK-p25 mice; conditions: 1 mg/kg i.p. for 10 days
Protocol: All 3 groups of mice were trained with the standard Morris watermaze paradigm for 6 days. Mice were placed in the swimming pool for 60 seconds to search for the hidden platform in each trial. A total of 3 trials were performed in each day with 5 min inter-trial-intervals. The average time each group of mice spent to find the platform is plotted (escape latency).
The two groups of mice were trained in the Morris watermaze paradigm for 7 days as described above. On day 8, platform was removed and mice were tested for memory retrieval. The average time each group of mice spent in the target quadrant is plotted.

[17] = target concentration 5 mg/ml, 0.9% NaCl

SMILES: COc1cc2c(cc1OC)C(=O)C(CC1CCN(Cc3ccccc3)CC1)C2 (stereo not drawn) [Aricept, reference compound]
- memory formation, tested 24 hours after training [1]: did not show any effects in memory formation

SMILES: CC(=O)Nc1ccc(C(=O)Nc2ccccc2N)cc1.Cl [BROAD-SAI-140]
- improvement in solubility in aqueous solution versus CI-994 [2]: 35 ×
- chemical and solution stability, HPLC ([2]; saline solution): ≥ 2 h
- Amount of drug dissolved in mg/ml of saline, 2 hours [2, 17]: 2.841 mg/mL
- Amount of drug dissolved in mg/ml of saline, Initial [2, 17]: 2.852 mg/mL

SMILES: CC(=O)Nc1ccc(C(=O)Nc2ccccc2N)cc1 [CI-994, 4-(acetylamino)-N-(2-aminophenyl)benzamide]
- acetylation levels over DMSO controls (anti-acetyl H4K12) [3]: increased acetylation levels over DMSO controls
- memories formed in a different context (context B) ([4]; 5 mg/kg (FIG. 49E)): did not affect memories formed in a context different from the extinction context
- freezing level during extinction sessions 30 days after training ([4]; 5 mg/kg, p<0.001 (FIG. 49B)): significantly reduced the animals' freezing level
- freezing levels 30 days after the last extinction trial ([4]; 5 mg/kg, p<0.001 (FIG. 49C)): still show reduced freezing levels compared to vehicle-treated ones
- freezing level in the extinction context (context A) ([4]; 5 mg/kg, p<0.05 (FIG. 49F)): exclusively reduced the animals' freezing level in the context in which the extinction had occurred
- freezing levels 30 days after last extinction trials, extinguished context ([4]; 5 mg/kg, p<0.05 (FIG. 49G)): still show reduced freezing levels compared to vehicle-treated ones
- LFP oscillation power in area CA1 (theta and gamma band) [5]: significantly increased the oscillation power
- spontaneous recovery of fear memory 30 days after extinction training ([6]; one dose i.p. 30 mg/kg): not evident
- freezing behavior after single extinction exposure ([6]; one dose i.p. 30 mg/kg one hour before 21 minute extinction trial, n=20): effective reduction in freezing
- serum AUC, average (variance as percentage of the mean) [7]: 9500(62.7%) ng·hr/mL
- serum Cmax, average (variance as percentage of the mean) [7]: 570(25.1%) ng/mL
- Conc. in Vehicles, DMA ([8]; maximal solubility, free base): 246040 µg/mL
- Conc. in Vehicles, DMSO ([8]; maximal solubility, free base): 266150 µg/mL
- Conc. in Vehicles, EtOH ([8]; maximal solubility, free base): 2120 µg/mL
- Conc. in Vehicles, NMP ([8]; maximal solubility, free base): 243280 µg/mL
- Conc. in Vehicles, Saline ([8]; maximal solubility, free base, 0.9% NaCl, at least 2 h): 80 µg/mL
- solubility at 2 h ([8]; saline (0.9% NaCl), saline or isotonic, read-out: Conc. in Vehicles, Saline): 80 µg/mL (≈ 297 µM)
- spontaneous recovery of fear memory, freezing one month after initial training [9]: significantly lower freezing level than the vehicle group
- fear extinction, freezing time of first trial in each day [9]: significantly facilitated fear extinction
- freezing level after 5 extinction trials ([10]; HDAC2 overexpressing mice, 30 mg/kg i.p., 2 doses): 30%
- freezing levels after one month of spontaneous recovery ([10]; HDAC2 overexpression mice): significantly reduced the freezing levels
- fear memory extinction in WT mice ([10]; WT mice, 30 mg/kg i.p.): extinct significantly faster than the vehicle treated group
- freezing level 5 days after the last training [11]: enhanced extinction of fear memory under specific context
- enzymatic inhibitory activity against HDAC isoforms (inhibition profile) [12]: primarily Class I HDAC inhibitors
- time dependent enzymatic inhibitory activity against HDAC isoforms [12]: primarily Class I HDAC inhibitors
- enzymatic inhibitory activity against HDAC isoforms (inhibition profile) ([12]; listed as CI994): inhibits HDAC1, 2 and 3
- freezing 24 hours after the extinction training [13]: showed significant reduction in freezing
- decay of freezing time before and after injection, extinction day 1 [14]: faster decay of freezing time
- decay of freezing time before and after injection, extinction day 2 [14]: faster decay of freezing time
- extinction of fear memory, freezing during first 3-min-exposure in each day ([14]; N=8): much faster
- freezing time on the third day ([14]; p<0.05): significantly less freezing time than the control group
- freezing level 24 hours after the reminder shock ([14]; versus control group): No significant difference
- memory formation, tested 24 hours after training [1]: significantly increased memory formation
- memory as measured by % time freezing ([1]; 1 mg/kg, every day and alternate day dosing schedule): equally effective
- memory as measured by % time freezing ([1]; 30 mg/kg every day for 10 days): improves the memory of mice
- memory as measured by % time freezing ([1]; 30 mg/kg, alternate day dosing schedule): equally effective
- memory as measured by % time freezing, dose response ([1]; 10, 5, and 1 mg/kg every day for 10 days): efficacious as a memory enhancer at all doses
- EC50 [15]: ~7 µM
- time spent in the target quadrant, memory retrieval on day 8 [16]: rescued the memory retrieval deficits
- escape latency (time to find hidden platform) ([16]; 6 days training): showed similar learning curve as control mice

SMILES: N[C@@H]1CONC1=O [DCS, D-cycloserine, reference compound]
- spontaneous recovery of fear memory, freezing one month after initial training [9]: no significant difference comparing to the vehicle group
- fear extinction, freezing time of first trial in each day [9]: but not DCS, significantly facilitated fear extinction
- freezing 24 hours after the extinction training [13]: showed significant reduction in freezing

SMILES: Nc1ccccc1NC(=O)c1ccc(CNc2nccc(-c3cccnc3)n2)cc1 [MGCD0103, reference compound]
- memory as measured by % freezing, contextual fear conditioning [1]: not efficacious
- memory as measured by % freezing, contextual fear conditioning ([1]; listed as MGC-D0103): did not result in improved cognition

SMILES: Nc1ccccc1NC(=O)c1ccc(CNC(=O)OCc2cccnc2)cc1 [MS-275, reference compound]
- memory as measured by % freezing, contextual fear conditioning [1]: not efficacious; also recorded: did not result in improved cognition

SMILES: O=C(CCCCCCC(=O)Nc1ccccc1)NO [SAHA, reference compound]
- acetylation levels over DMSO controls (anti-acetyl H4K12) [3]: increased acetylation levels over DMSO controls

SMILES: Nc1ccc(C(=O)Nc2ccccc2N)cc1 [dinaline]
- enzymatic inhibitory activity against HDAC isoforms (inhibition profile) [12]: primarily Class I HDAC inhibitors
- time dependent enzymatic inhibitory activity against HDAC isoforms [12]: primarily Class I HDAC inhibitors
